Laboratory results reported in US6602870B2, “Oral dosage form for administration of the combination of tegafur, uracil, folinic acid, and oxaliplatin and method of using the same” (Bristol-Myers Squibb Company, priority 2000, dated 2003).
“And” between values parts separate entries of the source, which are not always exact repeats. Equal entries are not always repeated.

Key:
[1] = tested on: human HT29 colorectal tumor cell xenografts; assay: Growth inhibition study in nude mice transplanted with human HT29 colorectal tumor cell xenografts; format: in vivo
Procedure: Growth inhibition studies were performed using nude mice transplanted with human HT29 colorectal tumor cell xenografts and 1) not treated (control group), or treated 2) with oral UFT (20 mg/kg/day) and calcium folinate (4 mg/kg/day) for 28 days; 3) intraperitonealy with oxaliplatin (10 mg/kg at day 1), or 4) with a combination of oxaliplatin with UFT and calcium folinate. Tumor measurements were performed twice a week, and animals were sacrificed at day 28. The tumors were excised and weighed. Two separate experiments were performed, for a total number of 25 animals in each group.
Human colorectal cancer HT29 cells, obtained from Dr. J. Fogh (Sloan Kettering Institute for Cancer Research, N.Y.), were cultured in DMEM (Dulbeccos modified Eagle's medium, Eurobio, Paris, France), supplemented with 10% heat-decomplemented fetal bovine serum (Boehringer, Manheim, Germany), 100 U/ml penicillin, 100 μg/ml streptomycin and […] glutamine. Cells were grown at 37° C. in a humidified atmosphere containing 5% CO2. The medium was renewed every 2 days, and the cells were passaged twice a week by trypsin/EDTA to maintain the cells in exponential growth.
Female BALB/c nude (nu+/nu+) aged 6 weeks were maintained in pathogen free state. Human HT29 colorectal xenograft (1×10^6 cells) was transplanted sub-cutaneously into the hind limb of each animal. Treatment was initiated 14 days later when the tumor became easily palpable and measurable (mean size of tumor surface=33 mm^2).
Oxaliplatin was administered intraperitoneally at a dose of 10 mg/kg day 1. […]
Two axes (mm) of tumor (the longest axis and the axis perpendicular to the longest axis) were measured with a caliper. Tumor measurements and body weights were recorded twice a week. […] Toxicity was evaluated in terms of body weight ratio (Wn/Wo) and mortality; Wn is the body weight measured n days after the initial administration, while Wo is the body weight at the start of administration. […] Results are expressed as mean weight (grams)±standard deviation. […]

[2] = Toxicity (body weight ratio, mortality) in HT29 xenograft nude mice; format: in vivo; details: day 28 before sacrifice; 25 animals per group
Procedure: Tumor measurements and body weights were recorded twice a week. […] For each experiment, the same observer made all measurements to minimize variations. Toxicity was evaluated in terms of body weight ratio (Wn/Wo) and mortality; Wn is the body weight measured n days after the initial administration, while Wo is the body weight at the start of administration. […] Two consecutive experiments gave similar data, and results represent the average of all data for a total of 25 animals per group. The means of each of the four groups were compared using the one-way analysis of variance. The Barlett's test was used for homogeneity of variances and the Tukey-Kramer multiple comparison test for inter-group comparison. Data analysis was performed using an IBM PC. Statistical analysis and graphs were performed using Instat and Prism software (GraphPad, San Diego, Calif.).
Body weight was evaluated in terms of the ratio of body weight measured n days after treatment (Wn) as compared to the body weight at the start of treatment (Wo). All animals (25 per group) were weighed twice a week.

Compound: O=C1[O][Pt]2([NH][C@@H]3CCCC[C@H]3[NH]2)[O]C1=O [oxaliplatin, [(1R, 2R)-1,2-cyclohexanediamine-N,N′][oxalato(2-)-O, O′]platinum]
- Decrease of tumor size (tumor growth inhibition) as compared to control ([1]; day 28, FIG. 1): 24%
- Tumor weight decrease as compared to control ([1]; day 28, same doses): 29.9% and 30%
- Mean tumor weight ([1]; tumors excised 28 days after treatment initiation, 25 animals per group, UFT 20 mg/kg/day + calcium folinate 4 mg/kg/day oral day 1-28, oxaliplatin 10 mg/kg i.p. day 1): 2.03 ± 0.14 g
- Body Weight Ratio (Wn/Wo) [2]: 1.05 ± 0.09
